Assay results taken from patent publication US20210196627A1, “SYSTEMS FOR ENTERIC DELIVERY OF THERAPEUTIC AGENTS” (Lyndra, Inc., priority 2018, published 2021).

Test: Memantine bioanalysis in plasma after duodenal placement of stellate system (LC-MS/MS)
Assay type: in vivo, beagle dogs
From the text: Six male beagle dogs (each weighing ˜10 kg) were anesthetized and intubated, and stellate-shaped systems bearing memantine drug arms were placed endoscopically through the pylorus into the duodenum. Each stellate system contained steel beads at the tips of the drug arms which facilitated X-ray imaging for confirming successful duodenal placement.
X-rays were collected daily to monitor residence time in the small intestine. Blood samples were collected through Day 10 of the study and processed to plasma for quantitation of memantine using an LC-MS/MS assay. The dogs were monitored for the duration of the study for safety.

## CC12CC3CC(C)(C1)CC(N)(C3)C2 [memantine]
Dog plasma, stellate system placed in duodenum, blood sampled through Day 10
  time for which sustained release of memantine was measurable: 7 days
male, beagle, memantine in dog plasma, stellate system placed endoscopically in duodenum
  Tmax: 8 h
Memantine in dog plasma, stellate system placed in duodenum
  exposure from the small intestine: good exposure
